Laboratory results: patent US20260242335A1, “HETEROCYCLOALKYL BETA-HYDROXY ALKYL AMINES FOR USE IN THE TREATMENT OF HYPERGLYCAEMIA AND DISORDERS CHARACTERISED BY HYPERGLYCAEMIA” (ATROGI AB, priority 2023, published 2026)
Structures can show the parent of a compound that is named as a salt.

How the values were obtained:
[1] = test system: L6-myotubes; experiment: Glucose uptake (3H-2-deoxyglucose) in differentiated L6-myotubes, compared to isoproterenol; assay type: cell-based; details: compound at 10 μM vs isoproterenol at 10 μM, read-out: Biological example 1: glucose uptake activity compared to that of isoproterenol
Method: (§1) L6-myoblasts were grown in Dulbecco's Modified Eagle's Medium (DMEM) containing 1 g/L glucose supplemented with 10% fetal bovine serum, 2 mM L-Glutamine, 50 U/mL penicillin, […] streptomycin and 10 mM HEPES. Cells were plated at 1×10^5 cells per mL in 24-well plates. After reaching 90% confluence the cells were grown in medium containing 2% FBS for 7 days where upon cells differentiated into myotubes.
Differentiated L6-myotubes were serum-starved overnight in medium containing 0.5% fatty-acid free BSA and stimulated with an agonist, with a final concentration of 1×10^−5 M. After 1 h 40 min the cells were washed with warm glucose free medium or PBS twice and another portion of agonist was added to the glucose free medium. After 20 min the cells were exposed to 50 nM ^3H-2-deoxyglucose for another 10 min before washed in ice cold glucose free medium or PBS three times and lysed in 400 μL/well 0.2 M NaOH for 1 h at 60° C. The cell lysate was mixed with 4 mL scintillation buffer (Emulsifier Safe, Perkin Elmer) and the radioactivity was detected in a p-counter (Tri-Carb 4810TR, Perkin Elmer). The activity for each compound is compared to that of isoproterenol.

[2] = test system: L6-myotubes; experiment: Measurement of intracellular cAMP levels (alpha screen cAMP kit) in differentiated cells, compared to isoproterenol; assay type: cell-based; details: 0.25 h, compound at 10 μM vs isoproterenol at 10 μM, 15 min stimulation, read-out: Biological example 2: intracellular cAMP level activity compared to that of isoproterenol
Method: as §1
Differentiated cells were serum-starved overnight and stimulated with an agonist, final concentration 1×10^−5 M, for 15 min in stimulation buffer (HBSS supplemented with 1% BSA, 5 mM HEPES and 1 mM IBMX, pH 7.4). The medium was aspirated and 100 μL of 95% EtOH was added to each well of the 24-well plate and cells were kept at −20° C. overnight. The EtOH was allowed to evaporate and 500 μL of lysis buffer (1% BSA, 5 mM HEPES and 0.3% Tween-20, pH 7.4) was added to each well. The plate was kept at −80° C. for 30 min and then at −20° C. until the day of detection when the samples were thawed. Intracellular cAMP levels were detected using an alpha screen cAMP kit (6760635D from Perkin Elmer). The activity for each compound is compared to that of isoproterenol.

| SMILES | Emax at 10 µM [1] [%] | Emax at 10 µM [2] [%] |
| --- | --- | --- |
| CC(C)(C[C@H]1CCN(S(C)(=O)=O)C1)NC[C@H](O)c1cncc(F)c1 [Example 63, (R)-1-(5-Fluoropyridin-3-yl)-2-((2-methyl-1-((R)-1-(methylsulfonyl)-pyrrolidin-3-yl)propan-2-yl)amino)ethan-1-ol] | > 75 | < 25 |
| CNC(=O)N1CCC[C@@H](CC(C)(C)NC[C@H](O)c2cncc(F)c2)C1 [Example 19, (S)-3-(2-(((R)-2-(5-Fluoropyridin-3-yl)-2-hydroxyethyl)amino)-2-methylpropyl)-N-methylpiperidine-1-carboxamide dihydrochloride] | > 75 | 50 to 75 |
| CC(C)(C[C@H]1CCNC(=O)C1)NC[C@H](O)c1cncc(F)c1 [Example 54, (R)-4-(2-(((R)-2-(5-Fluoropyridin-3-yl)-2-hydroxyethyl)amino)-2-methylpropyl)piperidin-2-one] | 50 to 75 | < 25 |
| CC(C)(C[C@@H]1CCCN(C(=O)C(F)(F)F)C1)NC[C@H](O)c1cccc(F)c1 [Example 6, 2,2,2-Trifluoro-1-((S)-3-(2-(((R)-2-(3-fluorophenyl)-2-hydroxyethyl)-amino)-2-methylpropyl)piperidin-1-yl)ethan-1-one] | > 75 | < 25 |
| CC(C)(C[C@@H]1CCN(C(=O)OC(C)(C)C)C1)NC[C@H](O)c1cccc(F)c1 [Example 64, tert-Butyl (S)-3-(2-(((R)-2-(3-fluorophenyl)-2-hydroxyethyl)amino)-2-methylpropyl)pyrrolidine-1-carboxylate] | 50 to 75 | > 75 |
| CC(C)(C[C@@H]1CCCN(C(=O)C(F)(F)F)C1)NC[C@H](O)c1cncc(F)c1 [Example 16, 2,2,2-Trifluoro-1-((S)-3-(2-(((R)-2-(5-fluoropyridin-3-yl)-2-hydroxy-ethyl)amino)-2-methylpropyl)piperidin-1-yl)ethan-1-one] | > 75 | < 25 |
| COC(=O)N1CCC(CC(C)(C)NC[C@H](O)c2cncc(F)c2)CC1 [Example 49, Methyl (R)-4-(2-((2-(5-Fluoropyridin-3-yl)-2-hydroxyethyl)amino)-2-methylpropyl)piperidine-1-carboxylate dihydrochloride] | > 75 | < 25 |
| CC(C)(C[C@@H]1CCCN(S(C)(=O)=O)C1)NC[C@H](O)c1cccc(C(F)(F)F)n1 [Example 23, (S)-2-((2-Methyl-1-((S)-1-(methylsulfonyl)piperidin-3-yl)propan-2-yl)-amino)-1-(6-(trifluoromethyl)pyridin-2-yl)ethan-1-ol dihydrochloride] | 50 to 75 | < 25 |
| CC(C)(C[C@@H]1CNC(=O)C1)NC[C@H](O)c1cncc(F)c1 [Example 74, (S)-4-(2-(((R)-2-(5-Fluoropyridin-3-yl)-2-hydroxyethyl)amino)-2-methylpropyl)pyrrolidin-2-one dihydrochloride] | > 75 | 25 to 50 |
| CC(C)(C[C@@H]1CCN(S(C)(=O)=O)C1)NC[C@H](O)c1cncc(F)c1 [Example 71, (R)-1-(5-Fluoropyridin-3-yl)-2-((2-methyl-1-((S)-1-(methylsulfonyl)-pyrrolidin-3-yl)propan-2-yl)amino)ethan-1-ol] | > 75 | < 25 |
| CN(C)C(=O)N1CCC(CC(C)(C)NC[C@H](O)c2cncc(F)c2)CC1 [Example 50, (R)-4-(2-((2-(5-Fluoropyridin-3-yl)-2-hydroxyethyl)amino)-2-methyl-propyl)-N,N-dimethylpiperidine-1-carboxamide dihydrochloride] | 50 to 75 | < 25 |
| CC(C)(C[C@@H]1CCCCO1)NC[C@H](O)c1cccc(F)c1 [Example 82, (R)-1-(3-Fluorophenyl)-2-((2-methyl-1-((S)-tetrahydro-2H-pyran-2-yl)propan-2-yl)amino)ethan-1-ol] | > 75 | < 25 |
| CC(=O)N1CCC[C@H](CC(C)(C)NC[C@H](O)c2cncc(F)c2)C1 [Example 26, 1-((R)-3-(2-(((R)-2-(5-Fluoropyridin-3-yl)-2-hydroxyethyl)amino)-2-methylpropyl)piperidin-1-yl)ethan-1-one dihydrochloride] | 50 to 75 | < 25 |
| CC(C)(C[C@@H]1CCCN(C(=O)C(C)(C)C)C1)NC[C@H](O)c1cncc(F)c1 [Example 15, 1-((S)-3-(2-(((R)-2-(5-Fluoropyridin-3-yl)-2-hydroxyethyl)amino)-2-methylpropyl)piperidin-1-yl)-2,2-dimethylpropan-1-one] | > 75 | < 25 |
| CC(C)(CC1CCOCC1)NC[C@H](O)c1cccc(F)c1 [Example 80, (R)-1-(3-Fluorophenyl)-2-((2-methyl-1-(tetrahydro-2H-pyran-4-yl)-propan-2-yl)amino)ethan-1-ol] | > 75 | < 25 |
| CNC(=O)N1CCC(CC(C)(C)NC[C@H](O)c2cccc(F)c2)CC1 [Example 45, (R)-4-(2-((2-(3-Fluorophenyl)-2-hydroxyethyl)amino)-2-methyl-propyl)-N-methylpiperidine-1-carboxamide] | 50 to 75 | < 25 |
| COC1CCN(CC(C)(C)NC[C@H](O)c2cccc(F)c2)CC1 [Example 85, (R)-1-(3-Fluorophenyl)-2-((1-(4-methoxypiperidin-1-yl)-2-methyl-propan-2-yl)amino)ethan-1-ol dihydrochloride] | > 75 | < 25 |
| CN1CCC[C@@H](CC(C)(C)NC[C@H](O)c2cccc(F)c2)C1 [Example 10, (R)-1-(3-Fluorophenyl)-2-((2-methyl-1-((S)-1-methylpiperidin-3-yl)-propan-2-yl)amino)ethan-1-ol] | > 75 | < 25 |
| CC(C)(C[C@H]1CCNC(=O)C1)NC[C@H](O)c1cccc(F)c1 [Example 52, (R)-4-(2-(((R)-2-(3-Fluorophenyl)-2-hydroxyethyl)amino)-2-methyl-propyl)piperidin-2-one] | 50 to 75 | < 25 |
| CC(C)(CC1CCN(C(=O)C(F)(F)F)CC1)NC[C@H](O)c1cccc(F)c1 [Example 42, (R)-2,2,2-Trifluoro-1-(4-(2-((2-(3-fluorophenyl)-2-hydroxyethyl)-amino)-2-methylpropyl)piperidin-1-yl)ethan-1-one] | 25 to 50 | < 25 |
| CN(C)C(=O)N1CCC[C@@H](CC(C)(C)NC[C@H](O)c2cccc(F)c2)C1 [Example 8, (S)-3-(2-(((R)-2-(3-Fluorophenyl)-2-hydroxyethyl)amino)-2-methyl-propyl)-N,N-dimethylpiperidine-1-carboxamide] | > 75 | < 25 |
| CC(C)(CC1CCN(C(=O)OC(C)(C)C)CC1)NC[C@H](O)c1cncc(F)c1 [Example 33, tert-Butyl (R)-4-(2-((2-(5-fluoropyridin-3-yl)-2-hydroxyethyl)amino)-2-methylpropyl)piperidine-1-carboxylate] | > 75 | < 25 |
| CC(C)(C[C@@H]1CCN(S(C)(=O)=O)C1)NC[C@H](O)c1cccc(F)c1 [Example 67, (R)-1-(3-Fluorophenyl)-2-((2-methyl-1-((S)-1-(methylsulfonyl)-pyrrolidin-3-yl)propan-2-yl)amino)ethan-1-ol] | > 75 | < 25 |
| CC(C)(C[C@@H]1CCN(C(=O)OC(C)(C)C)C1)NC[C@H](O)c1cncc(F)c1 [Example 68, tert-Butyl (S)-3-(2-(((R)-2-(5-fluoropyridin-3-yl)-2-hydroxyethyl)-amino)-2-methylpropyl)pyrrolidine-1-carboxylate] | > 75 | 25 to 50 |
| CC(C)(CN1CCC(C)(NS(C)(=O)=O)CC1)NC[C@H](O)c1cccc(F)c1 [Example 88, (R)—N-(1-(2-((2-(3-Fluorophenyl)-2-hydroxyethyl)amino)-2-methyl-propyl)-4-methylpiperidin-4-yl)methanesulfonamide dihydrochloride] | 50 to 75 |  |
| CC(=O)NC1(C)CCN(CC(C)(C)NC[C@H](O)c2cccc(F)c2)CC1 [Example 87, (R)—N-(1-(2-((2-(3-Fluorophenyl)-2-hydroxyethyl)amino)-2-methyl-propyl)-4-methylpiperidin-4-yl)acetamide] | 50 to 75 |  |
| CN1C[C@@H](CC(C)(C)NC[C@H](O)c2cccc(F)c2)CCC1=O [Example 79, (R)-5-(2-(((R)-2-(3-Fluorophenyl)-2-hydroxyethyl)amino)-2-methyl-propyl)-1-methylpiperidin-2-one hydrochloride] | > 75 |  |
